Laboratory results as given in patent publication US20050182044A1, “Combinatorial therapy with an acetylcholinesterase inhibitor and (3aR)-1,3a,8-trimethyl-1,2,3,3a,8,8a-hexahydropyrrolo[2,3,-b]indol-5-yl phenylcarbamate” (priority 2004, published 2005).
“Also recorded” adds a separate entry of the source. Like-named read-outs stand apart in the source and are kept apart here.

Legend:
β-APP [1] = assay: β-APP levels in adult rats after three weeks of daily administration; format: in vivo, rat; details: daily for three weeks, metrifonate 80 mg/kg, tacrine 3 mg/kg, data not shown
Experimental: The levels of β-APP were measured by 22C11 (epitope APP 66-81).

AChE [2] = biological target: T1, AChE (Homo sapiens, UniProt P22303); assay: biochemical; details: IC50 Value AChE, Brain
T1 construct: other: Brain
From the text: (§1) For example, the pharmacological activity of each compound may be expressed as the IC50, which is defined as the concentration (e.g., in nanomoles) required to inhibit 50% of the enzyme activity of ACHE or produce a 50% reduction in β-APP or Aβ. The AChE inhibition IC50 values may be determined by measuring the enzyme activity at each concentration and expressed as a percentage of the activity determined in the absence of each compound. This then is transformed into a logit format, where logit=In (% activity/[100−% activity]), and was plotted as a finction of the log concentration of the compound (Id.). IC50 values (i.e., logit=In (50/[100−50 =0) were determined only from correlation coefficients (r^2) of […] and when more than 50% inhibition was achieved from duplicate samples.

BChE = biological target: T2, BChE (Homo sapiens, UniProt P06276); assay: BChE inhibition IC50 (RBC/plasma and brain); format: biochemical
T2 construct: (−)-Phenserine (RBC/plasma); from tissue; host or cells: plasma (RBC/plasma rows); brain (Brain rows)

β-APP [3] = assay: β-APP levels in neuroblastoma cell culture (Western blot, mAb 22C11); format: cell-based, human; details: for β-APP levels, intracellular and extracellular: SK-N-SH cells, 5 or 50 μM, up to 16 hours, vs control, no cellular toxicity (LDH), FIG. 4/5; for intracellular β-APP level: donepezil treatment, FIG. 2
Experimental: Acad. Sci. USA 98 (13):7605-7610. The methodology of Shaw et al. for carrying out these tests is summarized as follows:
(§2) SK—N—SH neuroblastoma cells were cultured on 60 mm dishes at a concentration of 3×10^6 cells, and SH—SY-5Y neuroblastoma cells were plated in 100 mm dishes at a concentration of 3×10^5 cells. The cells were allowed to grow in complete media (10% FBS, 2 mM glutamine in DMEM) for 3 to 4 days until they reached 70% confluence.
Lysate preparation: At each time point, the spent medium was collected and stored at −70 C for later analysis of secretory β-APP levels. Cell lysates were prepared as reported previously (Lahiri et al. (1997) Effects of Cholinesterase Inhibitors on the Secretion of Beta-Amyloid Precursor Protein in Cell Cultures, Ann. N.Y Acad. Sci. 826:416-421; and Lahiri et al. (1998) The Secretion of Amyloid Beta-Peptides is Inhibited in the Tacrine-Treated Human Neuroblastoma Cells, Mol. Brain Res. 62:131-140). Protein levels of the supernatant were analyzed by the Bradford protein assay (BioRad, Mellville, N.Y.).
Western Blot: Fifteen μg of protein from each sample was loaded onto a 10% NuPAGE Bis-Tris gel in 1× NuPAGE MOPS SDS running buffer (NOVEX, San Diego, Calif.) and the proteins separated at 200 V for 45 minutes. The gels were then transferred onto nitrocellulose at 25 V for 1.5 hours. Non-specific binding was blocked, and each blot was probed for 2 hours with either 22C11 anti-β-APP N-terminal antibody (2.5 μg/mL, Boehringer Mannheim, Indianapolis, Ind.) or anti-activated ERK antibody (25 ng/mL, Promega, Madison, Wis.). Anti-mouse IgG- or anti-rabbit IgG, conjugated to horse radish peroxidase, were used as secondary antibodies. Equivalent loading of samples was determined by Ponceau S staining (Sigma, St. Louis, Mo.). Densimetric quantification of the chemiluminescence of blots was undertaken by using a […] and NIH-IMAGE (version 4.1).

Aβ [4] = assay: Aβ levels in neuroblastoma cell culture (ELISA); format: cell-based, human; details: for secreted levels of Aβ: SK-N-SH cells, 5 or 50 μM, up to 16 hours, vs control, no cellular toxicity (LDH), FIG. 4/5
Experimental: as §2
Total Aβ Assay: Total Aβ peptide levels in SH—SY-5Y and SK—N—SH cultured samples were assayed by a sensitive ELISA assay (Suzuki et al., (1994) An Increased Percentage of Long Amyloid Beta Protein Secreted by Familial Amyloid Beta Protein Precursor (beta APP717) Mutants, Science 264:1336-1340). For total Aβ peptide measurements, a sandwich immunoassay with rabbit polyclonal antibody to residues 1-40 of Aβ or a monoclonal antibody to residues 17-25 of Aβ as a capture antibody for all species of Aβ peptide, Aβ1-40 and Aβ1-42, was used, and the values were expressed as the mean of six independent assays.

β-APP [5] = assay: CSF levels of β-APP in naive and forebrain-lesioned rats; format: in vivo, rat; details: for CSF levels of β-APP: vs untreated controls, FIG. 6
Experimental: Lesions were induced with […] N-methyl-D-aspartic acid (50 nMol) (64-68).

AChE [6] = biological target: T3, AChE (Rattus norvegicus, UniProt P37136); assay: In vivo AChE inhibition in plasma after i.v. administration; parameters: species or system Fischer-344 rats; details: iv, 1 mg/kg i.v.
T3 construct: Samples of plasma were removed to measure untreated levels of AChE activity; from tissue; host or cells: plasma of Fischer-344 rats
T3 sequence (P37136 32-614): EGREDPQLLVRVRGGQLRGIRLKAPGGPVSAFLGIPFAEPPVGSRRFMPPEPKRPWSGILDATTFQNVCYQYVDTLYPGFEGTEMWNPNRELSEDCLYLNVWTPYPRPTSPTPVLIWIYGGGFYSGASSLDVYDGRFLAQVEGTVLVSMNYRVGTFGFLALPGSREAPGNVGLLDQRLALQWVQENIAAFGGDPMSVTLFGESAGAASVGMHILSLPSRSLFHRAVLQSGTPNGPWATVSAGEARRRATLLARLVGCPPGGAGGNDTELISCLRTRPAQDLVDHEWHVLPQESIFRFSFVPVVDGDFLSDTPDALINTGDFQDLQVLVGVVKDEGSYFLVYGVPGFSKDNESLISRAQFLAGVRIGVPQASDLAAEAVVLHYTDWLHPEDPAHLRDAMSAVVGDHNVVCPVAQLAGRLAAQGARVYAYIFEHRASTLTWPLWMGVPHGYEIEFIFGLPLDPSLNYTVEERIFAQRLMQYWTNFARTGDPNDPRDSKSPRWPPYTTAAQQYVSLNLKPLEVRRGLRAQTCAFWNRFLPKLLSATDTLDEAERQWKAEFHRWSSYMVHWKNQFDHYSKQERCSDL
Experimental: In this experiment, three-month-old male Fischer-344 rats were anesthetized with halothane. PE 50 catheters, filled with heparinized isotonic saline, were tied into their right femoral artery and vein. Animals then were restrained with a plaster cast that enabled them to move their head and forequarters only and were allowed to recover from anesthesia in a temperature-controlled enclosure. Samples of plasma were removed to measure untreated levels of AChE activity. At 90 minutes after surgery, hexamethonium bromide (5 mg/kg) was administered intraperitoneally, followed by subcutaneous injection of atropine methyl bromide (4 mg/kg) 10 minutes later. […] Both were formulated in a manner consistent for intravenous bolus injection. Plasma samples were removed and immediately frozen at −70° C., just prior to intravenous administration of the inhibitors and at times between 2 minutes and 8 hours.

[7] = i.p. administration to rodents, cholinergic over-stimulation symptoms
From the text: This is a classical central (i.e., brain) cholinergic over-stimulation (overdrive) effect.

Aβ [8] = assay: Preclinical studies, Aβ levels in nerve cells; format: cell-based, rat; details: for reduction of Aβ levels in nerve cells: versus controls
β-APP [9] = assay: Preclinical studies, β-APP levels; format: cell-based, rat; details: versus controls
[10] = biological target: T4, acetylcholinesterase (AChE) (Homo sapiens, UniProt P22303); assay: IC50 for AChE inhibition, phenserine enantiomers; format: biochemical
T4 construct: host or cells: human erythrocytes
From the text: as §1

β-APP [11] = assay: β-APP production on coadministration of (+)-phenserine with an AChEI (Example III); format: cell-based
From the text: The compounds may be tested by the procedure utilized in Example II.

[12] = Randomized, double-blind, placebo-controlled 12-week study in mild to moderate Alzheimer's disease; format: in vivo, human; details: oral, 12 weeks
[13] = biological target: T4, acetylcholinesterase (AChE); details: compared with the negative enantiomer; Pei, Greig et al. (1995); cited from earlier work
[14] = extracellular β-APP levels, read-out: IC50 for β-APP secretion
[15] = intracellular β-APP levels, read-out: IC50 for intracellular β-APP
[16] = human neuroblastoma cells, 2 μM, 10 μM and 50 μM (text: 50 μM), FIG. 3

T2 sequence (P06276 29-602, species assumed): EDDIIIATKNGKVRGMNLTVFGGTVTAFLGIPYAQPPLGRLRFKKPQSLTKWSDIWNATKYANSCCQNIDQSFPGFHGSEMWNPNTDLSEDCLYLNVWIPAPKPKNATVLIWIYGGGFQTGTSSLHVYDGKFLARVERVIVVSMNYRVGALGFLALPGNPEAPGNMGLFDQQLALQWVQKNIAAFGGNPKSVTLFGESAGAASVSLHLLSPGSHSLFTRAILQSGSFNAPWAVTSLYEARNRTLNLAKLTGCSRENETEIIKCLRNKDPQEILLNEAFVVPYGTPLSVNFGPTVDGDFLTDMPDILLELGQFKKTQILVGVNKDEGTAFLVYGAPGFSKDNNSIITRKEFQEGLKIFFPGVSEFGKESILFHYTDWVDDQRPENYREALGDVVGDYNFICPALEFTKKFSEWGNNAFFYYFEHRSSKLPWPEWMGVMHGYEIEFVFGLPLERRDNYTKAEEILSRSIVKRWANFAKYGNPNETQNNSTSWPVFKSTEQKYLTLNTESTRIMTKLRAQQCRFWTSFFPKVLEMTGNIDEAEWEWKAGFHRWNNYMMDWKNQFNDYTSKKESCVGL
T4 sequence (P22303 32-617 isoform P22303-2 limits assumed): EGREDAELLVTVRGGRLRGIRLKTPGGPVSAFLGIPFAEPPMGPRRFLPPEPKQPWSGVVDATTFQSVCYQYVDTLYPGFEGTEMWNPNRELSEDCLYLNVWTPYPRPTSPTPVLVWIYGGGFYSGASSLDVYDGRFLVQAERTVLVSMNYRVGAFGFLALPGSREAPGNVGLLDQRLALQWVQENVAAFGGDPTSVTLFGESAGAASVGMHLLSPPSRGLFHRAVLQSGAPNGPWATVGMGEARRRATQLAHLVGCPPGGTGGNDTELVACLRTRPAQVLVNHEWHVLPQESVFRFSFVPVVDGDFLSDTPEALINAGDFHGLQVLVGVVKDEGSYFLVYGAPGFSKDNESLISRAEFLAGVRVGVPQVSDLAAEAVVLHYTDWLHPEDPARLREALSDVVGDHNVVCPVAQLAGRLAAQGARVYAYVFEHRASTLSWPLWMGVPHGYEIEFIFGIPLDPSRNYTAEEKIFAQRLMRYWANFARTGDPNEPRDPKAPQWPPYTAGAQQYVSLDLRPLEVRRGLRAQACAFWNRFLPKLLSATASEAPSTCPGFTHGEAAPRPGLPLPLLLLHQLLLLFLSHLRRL
T1 sequence (P22303 whole entry): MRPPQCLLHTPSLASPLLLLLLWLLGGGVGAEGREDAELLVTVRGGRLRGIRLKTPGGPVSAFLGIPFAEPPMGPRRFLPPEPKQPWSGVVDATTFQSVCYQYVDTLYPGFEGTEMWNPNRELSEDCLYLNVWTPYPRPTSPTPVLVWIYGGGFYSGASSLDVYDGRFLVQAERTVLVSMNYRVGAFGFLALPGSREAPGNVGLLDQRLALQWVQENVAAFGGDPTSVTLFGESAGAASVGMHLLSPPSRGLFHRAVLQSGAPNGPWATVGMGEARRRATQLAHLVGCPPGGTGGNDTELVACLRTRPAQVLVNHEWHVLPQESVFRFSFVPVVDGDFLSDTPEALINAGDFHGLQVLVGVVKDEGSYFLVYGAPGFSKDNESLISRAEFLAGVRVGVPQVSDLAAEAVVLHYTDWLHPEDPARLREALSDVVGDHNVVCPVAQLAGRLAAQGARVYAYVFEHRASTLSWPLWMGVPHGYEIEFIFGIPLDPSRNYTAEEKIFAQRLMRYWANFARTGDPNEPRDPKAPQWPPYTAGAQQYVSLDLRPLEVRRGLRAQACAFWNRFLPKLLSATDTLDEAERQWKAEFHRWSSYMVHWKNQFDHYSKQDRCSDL

With Nc1c2c(nc3ccccc13)CCCC2 [Tacrine] the “secreted β-APP levels” value (β-APP [1]) was “did not alter”.

Work on CN1CC[C@@]2(C)c3cc(OC(=O)Nc4ccccc4)ccc3N(C)C12 (single isomer, unassigned; (-)) [(−)-phenserine] yielded an IC50 (AChE [2]) of 0.036 ± 0.003 µM, an IC50 (BChE; Brain) of 2.5 ± 1.1 µM and an IC50 (BChE; RBC/plasma) of 1.56 ± 0.27 µM. The “β-APP levels, intracellular and extracellular” value (β-APP [3]) was “significantly lowered; also recorded: reduces β-APP and Aβ levels in a concentration-dependent manner; also recorded: decreased the β-APP levels”, the IC50 (β-APP [3]; [14]) was roughly 0.67 µM and the IC50 (β-APP [3]; intracellular β-APP levels, read-out: IC50 for inhibition of β-APP, intracellular) was roughly 1.1 µM. For the same molecule, the IC50 (β-APP [3]; [15]) was roughly 1.1 µM, the “secreted levels of Aβ” value (Aβ [4]) was “significantly lowered; also recorded: reduces β-APP and Aβ levels in a concentration-dependent manner; also recorded: substantially reduced from that of the controls especially at 16 hours” and the “extracellular β-APP in the CSF, dose dependence of the decrease” value (β-APP [5]; adult rats, up to very high doses) was “reaches a plateau that is not further decreased even at very high doses”. For the same molecule, the “CSF levels of β-APP” value (β-APP [5]; naive rats, 2.5 mg/kg, 2.5 mg/kg) was “lowered β-APP levels; also recorded: reduce β-APP levels”, the “CSF levels of β-APP” value (β-APP [5]; rats with cholinergic forebrain (nucleus basalis of Meynert) lesions) was “lowered β-APP levels” and the inhibition at 1 mg/kg (AChE [6]; at 5 minutes, read-out: maximum AChE inhibition) was 73.5%. For the same molecule, the inhibition at 1 mg/kg (AChE [6]; at 8 hours, read-out: AChE inhibition) was 43%, the “duration of fine tremor” value ([7]; 5 mg/kg i.p.) was “about 1 hour” and the observed symptoms ([7]; 5 mg/kg i.p.) was “a fine tremor was observed”. The observed symptoms ([7]; 7.5 mg/kg i.p.) was “Tremor, together with symptoms of peripheral over-stimulation (specifically, lacrimation and salivation)”, the observed symptoms ([7]; 20 mg/kg i.p.) was “incapacitated by severe tremor and peripheral side effects” and the “animals killed when moribund” value ([7]; 20 mg/kg i.p., of 5 treated animals) was 2. For the same molecule, the “reduction of Aβ levels in nerve cells” value (Aβ [8]; after 8 hours) was 14%, the “reduction of Aβ levels in nerve cells” value (Aβ [8]; after 16 hours) was 31% and the “levels of β-APP” value (β-APP [9]) was “similarly reduced”.

In the case of CN1CC[C@]2(C)c3cc(OC(=O)Nc4ccccc4)ccc3N(C)C12 (single isomer, unassigned; (+)) [(+)-phenserine], the IC50 [10] is reported as greater than 25 µM, the “β-APP levels, intracellular and extracellular” value (β-APP [3]) is reported as “significantly lowered” and the “β-APP levels, intracellular and extracellular” value (β-APP [3]; listed as (+)-Phenserine) is reported as “capable of reducing the β-APP and Aβ protein levels”. For the same molecule, the IC50 (β-APP [3]; [14]) was roughly 0.67 µM, the IC50 (β-APP [3]; [15]) was roughly 1.1 µM and the “secreted levels of Aβ” value (Aβ [4]) was “significantly lowered”. For the same molecule, the “secreted levels of Aβ” value (Aβ [4]; listed as (+)-Phenserine) was “capable of reducing the β-APP and Aβ protein levels”, the observed symptoms ([7]; 20 mg/kg i.p.) was “entirely without symptoms” and the Aβ levels (Aβ [8]; combined with (−)-phenserine) was “further reduced”. For the same molecule, the “production of β-APP” value (β-APP [11]; coadministered with donepezil) was “reduce the production of β-APP”, the “production of β-APP” value (β-APP [11]; coadministered with eptastigmine) was “reduce the production of β-APP” and the “production of β-APP” value (β-APP [11]; coadministered with galantamine) was “reduce the production of β-APP”. The “production of β-APP” value (β-APP [11]; coadministered with huperzine A) was “reduce the production of β-APP”, the “production of β-APP” value (β-APP [11]; coadministered with rivastigmine) was “reduce the production of β-APP” and the “efficacy test level (NPI, CGIC, ADAS-cog, MMSE, CANTAB, ADCS-ADL) vs First Level” value ([12]; 50 mg bid with 5 mg bid (−)-phenserine) was “maintain a level at least as great as the First Level”. The “efficacy test level (NPI, CGIC, ADAS-cog, MMSE, CANTAB, ADCS-ADL) vs First Level” value ([12]; 50 mg bid with 6-12 mg per day rivastigmine) was “maintain a level at least as great as the First Level” and the “activity as an inhibitor of human acetylcholinesterase” value [13] was “far less active”.

In the case of COc1cc2c(cc1OC)C(=O)C(CC1CCN(Cc3ccccc3)CC1)C2 (centres unmarked) [donepezil, reference compound], the “intracellular β-APP level” value (β-APP [3]) is reported as “decreased intracellular levels” and the “intracellular β-APP level” value (β-APP [3]; listed as Donepezil) is reported as “reduces intracellular β-APP”.

With COP(=O)(OC)C(O)C(Cl)(Cl)Cl (centres unmarked) [Metrifonate] the “secreted β-APP levels” value (β-APP [1]) was “did not alter”.

In the case of CCN(C)C(=O)Oc1cccc([C@H](C)N(C)C)c1 [rivastigmine, reference compound], the “secreted β-APP” value (β-APP [3]; [16]) is reported as “elevated secretion of β-APP; also recorded: elevates the levels of secreted β-APP” and the Aβ peptide levels (Aβ [4]; [16]) is reported as “No statistically significant change; also recorded: without a statistically significant change”.
